Where two headings read alike, the source gives them in different places.
Key:
[1] = biological target: steroid 5-α-reductase; details: cited from earlier work; for Ki / reversibility of inhibition (with Ki): Table I; for time-dependence of 5-α-reductase inhibition: footnote text of Table I
[2] = biological target: T1, human steroid 5-α-reductase (Homo sapiens, UniProt P31213); experiment: inhibition of human steroid 5-α-reductase using tissue from hyperplastic human prostates ([14C]-testosterone conversion, Dixon plot); type: biochemical; details: human prostatic particulate, pH 5.0, 37° C., 20 to 30 minutes; competitive against testosterone assumed
T1 construct: Frozen human prostates were thawed and minced into small pieces; from tissue; host or cells: hyperplastic human prostate, 140,000 x g particulate fraction
T1 sequence (P31213 1-254): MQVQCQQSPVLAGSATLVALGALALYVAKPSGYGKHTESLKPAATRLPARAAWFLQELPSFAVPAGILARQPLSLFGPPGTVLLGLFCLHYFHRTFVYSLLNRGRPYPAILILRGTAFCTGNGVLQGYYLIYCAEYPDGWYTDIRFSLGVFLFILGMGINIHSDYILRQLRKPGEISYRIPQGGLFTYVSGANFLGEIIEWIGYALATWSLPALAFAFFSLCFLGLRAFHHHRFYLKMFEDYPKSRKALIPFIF
Method: A compound of the invention, potassium 17b-(N,N-diisopropylcarboxamide)-estr-1,3,5(10)-triene-3-sulfonate, was tested for potency in inhibiting human steroid 5-α-reductase using tissue from hyperplastic human prostates. In determining potency in inhibiting the human enzyme, the following procedure was employed:
Frozen human prostates were thawed and minced into small pieces (5 mm^3). The tissue was homogenized in 3 to 5 volumes of 20 mM potassium phosphate buffer, pH 6.5, containing 0.33 M sucrose, 1 mM dithiothreitol, and […] with a Brinkmann Polytron (Sybron Corporation, Westbury, N.Y.). The solution was subjected to sonication for 3 to 5 minutes with a Sonifier (Branson Sonic Power Co.) followed by hand homogenization in a glass-to-glass Dounce homogenizer (Kontes Glass Company, Vineland, N.J.). […]
A constant amount of [^14 C]-testosterone (52 to 55 mCi/mmol, New England Nuclear, Boston, Mass.) in ethanol and varying amounts of the potential inhibitor in ethanol were deposited in test tubes and concentrated to dryness in a SAVANT Speed Vac. […] The radiochemical content in the bands of the substrate and the products was determined with a BIOSCAN Imaging Scanner (Bioscan, Inc., Washington, D.C.). The percent of recovered radiolabel converted to product was calculated, from which enzyme activity was determined. […]

Structure (SMILES)	Ki [1]	reversibility of inhibition (with Ki) [1]	Ki ([1]; unit inferred)	time-dependence of 5-α-reductase inhibition [1]	Ki [2]
CC12CCC(=O)C=C1CCC1C2CCC2(C)C(C(=O)O)CCC12 (stereo not shown) [(1)]	1100 nM	Reversible	–	–	–
CC(=O)C1CCC2C3CC=C=CC(=O)CCC(=O)C3CCC12C (stereo not shown) [(2)]	1000 nM	Irreversible	–	–	–
CC(CO)C1CCC2C3CCC4C(=[N+]=[N-])C(=O)CCC4(C)C3CCC12C (stereo not shown) [(3)]	–	Irreversible	35 nM	potent, time-dependent	–
CCN(CC)C(=O)C1CCC2C3CCC4N(C)C(=O)CCC4(C)C3CCC12C (stereo not shown) [(4)]	5 nM	Reversible	–	–	–
C=C1CC2C(CCC3(C)C2CCC3(OC(C)=O)C(C)=O)C2(C)CCC(=O)C=C12 (stereo not shown) [(5)]	1250 nM	Irreversible	–	time-dependent inactivator	–
CC(C)N(C(=O)[C@H]1CC[C@H]2[C@@H]3CCc4cc(S(=O)(=O)O)ccc4[C@H]3CC[C@]12C)C(C)C [Potassium 17β-(N,N-Diisopropylcarboxamide)-estr-1,3,5(10)-triene-3-sulfonate]	–	–	–	–	10 nM

— patent publication US4970205A, “Sulfonic acid substituted aromatic steroids as inhibitors of steroid 5-α-reductase” (SmithKline Beecham Corporation, priority 1988, dated 1990)
